Laboratory results: publication PMC10225205 (Cancer Medicine, 2023)
Where “and” joins values, the source holds several entries; their conditions need not be identical. Equal values may be shown once. Entries after “also recorded” stand apart in the source; their conditions may differ.

Assays:
[1] = FIGHT-102 pemigatinib plasma/urine pharmacokinetics (noncompartmental); conditions: for AUC(0-t) / AUC / Cmax / Vd/F / Tmax / half-life: human, in vivo, 13.5 mg; for AUC: AUCss,0-24h; for Vd/F: Vz/F; for Tmax: median; for half-life: t½
Protocol: (§1) Postdose samples were collected at 0.5, 1, 2, 4, 6, and 8 h on Day 1, and at 1 h on Day 14 of Cycle 1. For patients in the CD regimen, a postdose sample at 6 h on Day 14 was also collected.
(§2) Pharmacodynamic data were presented using summary statistics.

clinical = conditions: human, in vivo; for AUC: AUCss,0-24h; for Vd/F: Vz/F; for Tmax: median; for half-life: t½
Protocol: as §1, §2

pFGFR2 = conditions: read-out: In vivo IC50 for the inhibition of pFGFR2; cited from earlier work
[2] = geometric mean (CV%), C1D14, 13.5 mg ID or CD, n 33
[3] = mean ± SD, C1D14, 13.5 mg ID or CD, n 33
[4] = c1-2 9 mg ID n=3, c3-4 13.5 mg ID n=23, c5-6 18 mg ID n=5, c7-8 ID subtotal n=31, c9-10 13.5 mg CD n=13, c11-12 total n=44, odd c all grades, even c Grade ≥3

CCN1C(=O)N(c2c(F)c(OC)cc(OC)c2F)Cc2cnc3[nH]c(CN4CCOCC4)cc3c21 [Pemigatinib]
tmax, median ([1]; C1D1, 13.5 mg ID or CD, n 36): 1 h | CLss/F, geometric mean (CV%) ([1]; C1D14, 13.5 mg ID or CD, n 33): 10.2 (55.5) L/h and 10.2 L/h | CLss/F, mean ± SD ([1]; C1D14, 13.5 mg ID or CD, n 33): 11.6 ± 6.52 L/h | Cmin,ss, geometric mean (CV%) ([1]; C1D14, 13.5 mg ID or CD, n 33): 56.0 (61.0) nM | Cmin,ss, mean ± SD ([1]; C1D14, 13.5 mg ID or CD, n 33): 66.2 ± 45.2 nM | AUC(0-t) ([1]; AUC0-24h, geometric mean (CV%), C1D1, 13.5 mg ID or CD, n 36): 1.88 µM·h | AUC(0-t) ([1]; AUC0-24h, mean ± SD, C1D1, 13.5 mg ID or CD, n 36): 2.02 ± 0.762 µM·h | AUC(0-t) ([1]; AUClast, geometric mean (CV%), C1D1, 13.5 mg ID or CD, n 36): 1.85 µM·h | AUC(0-t) ([1]; AUClast, mean ± SD, C1D1, 13.5 mg ID or CD, n 36): 1.99 ± 0.748 µM·h | AUC [1, 2]: 2.72 µM·h | AUC [1, 3]: 3.09 ± 1.68 µM·h | Cmax ([1]; Cmax, geometric mean (CV%), C1D1, 13.5 mg ID or CD, n 36): 216 nM | Cmax ([1]; Cmax, mean ± SD, C1D1, 13.5 mg ID or CD, n 36): 260 ± 136 nM | Cmax ([1]; Cmax,ss, geometric mean (CV%), C1D14, 13.5 mg ID or CD, n 33): 195 nM | Cmax ([1]; Cmax,ss, mean ± SD, C1D14, 13.5 mg ID or CD, n 33): 238 ± 139 nM | Vd/F [1, 2]: 201 L | Vd/F [1, 3]: 258 ± 216 L | Tmax ([1]; C1D1, 13.5 mg ID or CD, n 36): 1.43 h | Tmax ([1]; C1D14, 13.5 mg ID or CD, n 33): 1.02 h | half-life [1, 2]: 816 min | half-life [1, 3]: 924 ± 542 min | AUC(0-t) (clinical; 9 mg, AUC0-24h, geometric mean (CV%)): 1.12 µM·h | AUC(0-t) (clinical; 9 mg, AUC0-24h, mean ± SD): 1.13 ± 0.133 µM·h | AUC(0-t) (clinical; 9 mg, AUClast, geometric mean (CV%)): 1.12 µM·h | AUC(0-t) (clinical; 9 mg, AUClast, mean ± SD): 1.12 ± 0.125 µM·h | AUC (clinical; 9 mg, geometric mean (CV%)): 2.05 µM·h | AUC (clinical; 9 mg, mean ± SD): 2.54 ± 2.1 µM·h | Cmax (clinical; 9 mg, Cmax, geometric mean (CV%)): 110 nM | Cmax (clinical; 9 mg, Cmax, mean ± SD): 114 ± 35.3 nM | Cmax (clinical; 9 mg, Cmax,ss, geometric mean (CV%)): 127 nM | Cmax (clinical; 9 mg, Cmax,ss, mean ± SD): 155 ± 117 nM | Vd/F (clinical; 9 mg, geometric mean (CV%)): 209 L | Vd/F (clinical; 9 mg, mean ± SD): 224 ± 104 L | Tmax (clinical; 9 mg): 1.9 h | half-life (clinical; 9 mg, geometric mean (CV%)): 966 min | half-life (clinical; 9 mg, mean ± SD): 1030 ± 446 min | AUC(0-t) (clinical; 18 mg, AUC0-24h, geometric mean (CV%)): 3.31 µM·h | AUC(0-t) (clinical; 18 mg, AUC0-24h, mean ± SD): 3.45 ± 1.02 µM·h | AUC(0-t) (clinical; 18 mg, AUClast, geometric mean (CV%)): 3.24 µM·h | AUC(0-t) (clinical; 18 mg, AUClast, mean ± SD): 3.38 ± 1.01 µM·h | AUC (clinical; 18 mg, geometric mean (CV%)): 6.56 µM·h | AUC (clinical; 18 mg, mean ± SD): 6.95 ± 2.78 µM·h | Cmax (clinical; 18 mg, Cmax, geometric mean (CV%)): 344 nM | Cmax (clinical; 18 mg, Cmax, mean ± SD): 431 ± 272 nM | Cmax (clinical; 18 mg, Cmax,ss, geometric mean (CV%)): 385 nM | Cmax (clinical; 18 mg, Cmax,ss, mean ± SD): 450 ± 285 nM | Vd/F (clinical; 18 mg, geometric mean (CV%)): 154 L | Vd/F (clinical; 18 mg, mean ± SD): 205 ± 188 L | Tmax (clinical; 18 mg): 1.02 h | half-life (clinical; 18 mg, geometric mean (CV%)): 1130 min | half-life (clinical; 18 mg, mean ± SD): 1240 ± 672 min | IC50 (pFGFR2): 22.6 nM | Maximum tolerated dose (MTD) (9-18 mg QD): not identified; also recorded: not reached | Clinically notable TEAE: Eyelash changes (trichiasis) [4]: 2 (15.4) n (%) | TEAE: ALT increased [4]: 6 (13.6) n (%) | TEAE: AST increased [4]: 2 (15.4) n (%) | TEAE: Blood alkaline phosphatase increased [4]: 2 (15.4) n (%) | TEAE: Blood creatinine increased [4]: 6 (13.6) n (%) | TEAE: Conjunctivitis [4]: 2 (15.4) n (%) | TEAE: Decreased appetite [4]: 2 (15.4) n (%) | TEAE: Dry skin [4]: 2 (15.4) n (%) | TEAE: Keratitis [4]: 2 (15.4) n (%) | TEAE: Malaise [4]: 6 (13.6) n (%) | TEAE: Nail discoloration [4]: 2 (15.4) n (%) | TEAE: Paronychia [4]: 6 (13.6) n (%) | TEAE: Punctate keratitis [4]: 2 (15.4) n (%) | TEAE: Trichiasis [4]: 2 (15.4) n (%) | TEAE: Vomiting [4]: 6 (13.6) n (%) | Chorioretinopathy (human, in vivo): 2.3% | Clinically notable TEAE: serous retinal detachment (category) (human, in vivo): 18.2% | Clinically notable ocular TEAE: dry eye (category) (human, in vivo): 25% | Dose interruptions due to clinically notable TEAEs (human, in vivo): 22.7% | Dose reductions due to clinically notable TEAEs (human, in vivo): 6.8% | Dry eye (term) (human, in vivo): 6.8% | Eyelash changes (trichiasis) (human, in vivo): 9.1% | Hyperphosphatemia leading to dose reduction (human, in vivo): 2.3% | Hypophosphatemia (human, in vivo): 4.5% | Keratitis (human, in vivo): 11.4% | Lacrimation increased (human, in vivo): 2.3% | Nail discoloration (human, in vivo): 6.8% | Nail ridging (human, in vivo): 2.3% | Nail toxicity TEAEs (human, in vivo): 31.8 | Oncholysis (human, in vivo): 4.5% | Onychomadesis (human, in vivo): 11.4% | Paronychia (human, in vivo): 13.6% | Patients with at least 1 treatment-related TEAE (human, in vivo): 97.7% | Patients with treatment-related TEAEs of Grade ≥3 (human, in vivo): 15.9% | Punctate keratitis (human, in vivo): 6.8% | Serous retinal detachment (term) (human, in vivo): 11.4% | Severity of hyperphosphatemia events (human, in vivo): Grades 1 or 2 | Subretinal fluid (human, in vivo): 4.5% | Treatment-related Grade ≥3 TEAE, each of anemia, punctate keratitis, diarrhea, stomatitis, ALT increased, AST increased, decreased appetite, hematuria (human, in vivo): 2.3% | Treatment-related alanine aminotransferase increased, Grade ≥3 (human, in vivo): 1 (2.3) n (%) | Treatment-related aspartate aminotransferase increased, Grade ≥3 (human, in vivo): 1 (2.3) n (%) | Treatment-related decreased appetite, Grade ≥3 (human, in vivo): 1 (2.3) n (%) | Treatment-related diarrhea, Grade ≥3 (human, in vivo): 1 (2.3) n (%) | Treatment-related stomatitis, Grade ≥3 (human, in vivo): 1 (2.3) n (%) | Vision blurred (human, in vivo): 4.5% | Recommended phase 2 dose (RP2D) (human, in vivo, 21 days): 13.5 mg | Discontinuation due to hyperphosphatemia (in vivo): No patients | Dose-limiting toxicities (DLTs) (in vivo): No DLTs | Patients with any TEAE (in vivo): all enrolled patients | TEAE with a fatal outcome (overall, considered unrelated to pemigatinib): 6.8%
